The target of assay [1] is Cy5-labelled Mcl1 (amino acids 171-321) C286S protein (UniProtKB Q07820) (Homo sapiens (Human), UniProt Q07820, C286S). Nature of the assay: Inhibition of Mcl-1 by the fluorescence quenching assay (Example A, Method B). It is filed as binding. In short, it runs like this: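 Cy5-labelled Mcl1 171-321 C286S (1 nM) quenched by TQ5WS-labelled PUMA peptide (10, 20 or 400 nM); displacement raises fluorescence (Ex 620/Em 680 nm). Buffer 10 mM HEPES, 150 mM NaCl, 0.05% Tween 20, pH 7.4, 5% DMSO; 2 h at room temperature, 11-point curves, IC50 converted to Ki (cKi/eKi).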

In assay [2] the test system is H929 multiple myeloma tumor line. Nature of the assay: In vitro cytotoxicity, MTT assay (Example B, Method A). The assay is classed as cell-based. Particulars: H929 cells, 48 hours exposure, read-out: C50. As for the experimental part:
The cytotoxicity studies were carried out on the H929 multiple myeloma tumor line.
The cells are distributed onto microplates and exposed to the test compounds for 48 hours. The cell viability is then quantified by a colorimetric assay, the Microculture Tetrazolium Assay (Carmichael et al, Cancer Res. 1987, 47, 939-942).
The results are expressed in C50 which means concentration corresponding to […] of effect/inhibition.

24 molecules from patent publication US20240150293A1, “SPIROCYCLOHEXANE DERIVATIVES, PHARMACEUTICAL COMPOSITIONS CONTAINING THEM AND THEIR USES AS ANTI-APOPTOTIC INHIBITORS” (LES LABORATOIRES SERVIER, priority 2021, published 2024) can be followed below.

Molecules are shown by their SMILES. Where two headings read alike, the source gives them in different places.

Broadly, the Ki is the equilibrium dissociation constant of an inhibitor or competing ligand from its target.

Cy5-labelled Mcl1 (amino acids 171-321) C286S protein, sequence (Q07820 171-321 C286S): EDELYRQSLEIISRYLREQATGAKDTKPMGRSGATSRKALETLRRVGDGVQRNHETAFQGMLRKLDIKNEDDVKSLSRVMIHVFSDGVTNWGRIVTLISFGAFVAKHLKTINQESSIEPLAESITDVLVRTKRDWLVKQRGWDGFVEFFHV

`O=C(O)[C@]1(Nc2cccc(Cl)c2)CC[C@@]2(CC1)c1ccccc1CC2CC(COc1ccnc2ccsc12)Cc1ccccc1` (single isomer, unassigned) [Example 560, (1r,4r)-2′-{2-benzyl-3-[(thieno[3,2-b]pyridin-7-yl)oxy]propyl}-4-(3-chloroanilino)-2′,3′-dihydrospiro[cyclohexane-1,1′-indene]-4-carboxylic acid]: the inhibitory constant (Ki) in assay [1] came to 92 nM. In addition, in assay [2], the IC50 was found to be 12600 nM.
The like results for `O=C(O)[C@]1(Nc2cccc(Cl)c2)CC[C@@]2(CC1)c1ccccc1CC2CC(COc1ccnc2ccsc12)Cc1ccccc1` (single isomer, unassigned) [Example 561, (1r,4r)-2′-{2-benzyl-3-[(thieno[3,2-b]pyridin-7-yl)oxy]propyl}-4-(3-chloroanilino)-2′,3′-dihydrospiro[cyclohexane-1,1′-indene]-4-carboxylic acid] were, in that order, 57.1 nM and 12300 nM.
On the same counts, the results for `O=C(O)[C@]1(Nc2cccc(Cl)c2)CC[C@@]2(CC1)c1ccccc1CC2CC(COc1ccnc2ccsc12)Cc1ccccc1` (single isomer, unassigned) [Example 562, (1r,4r)-2′-{2-benzyl-3-[(thieno[3,2-b]pyridin-7-yl)oxy]propyl}-4-(3-chloroanilino)-2′,3′-dihydrospiro[cyclohexane-1,1′-indene]-4-carboxylic acid] are 80.9 nM and 17800 nM.
For the molecule `O=C(O)[C@]1(Nc2cccc(Cl)c2)CC[C@@]2(CC1)c1ccccc1CC2CC(COc1ccnc2ccsc12)Cc1ccccc1` (single isomer, unassigned) [Example 563, (1r,4r)-2′-{2-benzyl-3-[(thieno[3,2-b]pyridin-7-yl)oxy]propyl}-4-(3-chloroanilino)-2′,3′-dihydrospiro[cyclohexane-1,1′-indene]-4-carboxylic acid], the Ki in assay [1] is 43.5 nM. The IC50 in assay [2] came out at 3950 nM.
In the case of `CC(CC1Cc2ccccc2[C@]12CC[C@@](Nc1cccc(Cl)c1)(C(=O)O)CC2)C1CCC(=O)CC1` (single isomer, unassigned) [Example 570, (1r,4r)-4-(3-chloroanilino)-2′-[2-(4-oxocyclohexyl)propyl]-2′,3′-dihydrospiro[cyclohexane-1,1′-indene]-4-carboxylic acid], the Ki in assay [1] was 363 nM. The IC50 in assay [2] (Homo sapiens, NCI-H929, 48 h) was 30000 nM.
As to `CC(CC1Cc2ccccc2[C@]12CC[C@@](Nc1cccc(Cl)c1)(C(=O)O)CC2)C1CCC(=O)CC1` (single isomer, unassigned) [Example 571, (1r,4r)-4-(3-chloroanilino)-2′-[2-(4-oxocyclohexyl)propyl]-2′,3′-dihydrospiro[cyclohexane-1,1′-indene]-4-carboxylic acid], the Ki in assay [1] was determined as 107 nM. Further, in assay [2], the IC50 came to 30000 nM.
On the same counts, the results for `CC(CC1Cc2ccccc2[C@]12CC[C@@](Nc1cccc(Cl)c1)(C(=O)O)CC2)C1CCC(=O)CC1` (single isomer, unassigned) [Example 572, (1r,4r)-4-(3-chloroanilino)-2′-[2-(4-oxocyclohexyl)propyl]-2′,3′-dihydrospiro[cyclohexane-1,1′-indene]-4-carboxylic acid] are 84.2 nM and 30000 nM.
Take `CC(CC1Cc2ccccc2[C@]12CC[C@@](Nc1cccc(Cl)c1)(C(=O)O)CC2)C1CCC(=O)CC1` (single isomer, unassigned) [Example 573, (1r,4r)-4-(3-chloroanilino)-2′-[2-(4-oxocyclohexyl)propyl]-2′,3′-dihydrospiro[cyclohexane-1,1′-indene]-4-carboxylic acid]: the Ki in assay [1] was determined as 806 nM. Moreover, in assay [2], the IC50 was found to be 30000 nM.
As to `C[C@@H](COc1ccnc2c1CCC2O)C[C@H]1Cc2ccccc2[C@]12CC[C@@](Nc1cccc(Cl)c1)(C(=O)O)CC2` (single isomer, unassigned) [Example 608], the Ki in assay [1] was determined as 1.62 nM. In addition, in assay [2] (Homo sapiens, NCI-H929, 48 h), the IC50 is 792 nM.
For `C[C@@H](COc1ccnc2c1CCC2O)C[C@H]1Cc2ccccc2[C@]12CC[C@@](Nc1cccc(Cl)c1)(C(=O)O)CC2` (single isomer, unassigned) [Example 609], the Ki in assay [1] is 2.61 nM. The IC50 in assay [2] came out at 629 nM.
The like results for `C[C@@H](COc1ccnc2c1[C@H]1CCC[C@H]1C2)C[C@H]1Cc2ccccc2[C@]12CC[C@@](Nc1cccc(Cl)c1)(C(=O)O)CC2` (single isomer, unassigned) [Example 620, (1r,2′S,4S)-4-(3-chloroanilino)-2′-[(2R)-3-{[(4bR*,7aR*)-4b,5,6,7,7a,8-hexahydropentaleno[2,1-b]pyridin-4-yl]oxy}-2-methylpropyl]-2′,3′-dihydrospiro[cyclohexane-1,1′-indene]-4-carboxylic acid] were, in that order, 12.7 nM and 889 nM.
On the same counts, the results for `C[C@@H](COc1ccnc2c1[C@H]1CCC[C@H]1C2)C[C@H]1Cc2ccccc2[C@]12CC[C@@](Nc1cccc(Cl)c1)(C(=O)O)CC2` (single isomer, unassigned) [Example 621, (1r,2′S,4S)-4-(3-chloroanilino)-2′-[(2R)-3-{[(4bR*,7aR*)-4b,5,6,7,7a,8-hexahydropentaleno[2,1-b]pyridin-4-yl]oxy}-2-methylpropyl]-2′,3′-dihydrospiro[cyclohexane-1,1′-indene]-4-carboxylic acid] are 37.6 nM and 2520 nM.
On to `CC(C)(COc1ccnc2sccc12)CC1Cc2ccccc2C12CCC(Nc1cccc(Cl)c1)(C(=O)O)CC2` (single isomer, unassigned) [Example 622, (1r,4r)-4-(3-chloroanilino)-2′-{2,2-dimethyl-3-[(thieno[2,3-b]pyridin-4-yl)oxy]propyl}-2′,3′-dihydrospiro[cyclohexane-1,1′-indene]-4-carboxylic acid], for which the Ki in assay [1] turned out to be 44.6 nM. Further, the IC50 in assay [2] (Homo sapiens, NCI-H929, 48 h) was 17100 nM.
In the case of `CC(C)(COc1ccnc2sccc12)CC1Cc2ccccc2C12CCC(Nc1cccc(Cl)c1)(C(=O)O)CC2` (single isomer, unassigned) [Example 623, (1r,4r)-4-(3-chloroanilino)-2′-{2,2-dimethyl-3-[(thieno[2,3-b]pyridin-4-yl)oxy]propyl}-2′,3′-dihydrospiro[cyclohexane-1,1′-indene]-4-carboxylic acid], the Ki in assay [1] stood at 2320 nM. Moreover, in assay [2], the IC50 was 30000 nM.
Turning to `CC1CCc2nccc(OC[C@H](C)CC3=Cc4ccccc4[C@]34CC[C@@](Nc3cccc(Cl)c3)(C(=O)O)CC4)c21` (single isomer, unassigned) [Example 629], the Ki in assay [1] came to 9.55 nM. For the same molecule, the IC50 in assay [2] was found to be 880 nM.
As for `CC1CCc2nccc(OC[C@H](C)CC3=Cc4ccccc4[C@]34CC[C@@](Nc3cccc(Cl)c3)(C(=O)O)CC4)c21` (single isomer, unassigned) [Example 630], the Ki in assay [1] is 1.17 nM. Also, in assay [2], the IC50 is 340 nM.
As for `Cc1cn(C[C@H](C)C[C@H]2Cc3ccccc3[C@]23CC[C@@](Nc2cccc(Cl)c2)(C(=O)O)CC3)c2c(c1=O)C(C)CCC2` (single isomer, unassigned) [Example 639], in assay [1], the inhibition constant (Ki) amounted to 37.2 nM. Moreover, in assay [2] (Homo sapiens, NCI-H929, 48 h), the IC50 stood at 12600 nM.
For the molecule `Cc1cn(C[C@H](C)C[C@H]2Cc3ccccc3[C@]23CC[C@@](Nc2cccc(Cl)c2)(C(=O)O)CC3)c2c(c1=O)C(C)CCC2` (single isomer, unassigned) [Example 640], the Ki in assay [1] came to 980 nM. Moreover, in assay [2], the IC50 came to 18100 nM.
Consider `CC1CCN(C)c2nccc(OC[C@H](C)C[C@H]3Cc4ccccc4[C@]34CC[C@@](Nc3cccc(Cl)c3)(C(=O)O)CC4)c21` (single isomer, unassigned) [Example 643], for which the Ki in assay [1] turned out to be 26.8 nM. For the same molecule, the IC50 in assay [2] (Homo sapiens, NCI-H929, 48 h) worked out at 1230 nM.
For `C[C@@H](COc1ccnc2c1[C@@H](C)CC[C@H]2C)C[C@H]1Cc2ccccc2[C@]12CC[C@@](Nc1cccc(Cl)c1)(C(=O)O)CC2` (single isomer, unassigned) [Example 658, (1r,2′S,4S)-4-(3-chloroanilino)-2′-[(2R)-3-{[(5R*,8S*)-5,8-dimethyl-5,6,7,8-tetrahydroquinolin-4-yl]oxy}-2-methylpropyl]-2′,3′-dihydrospiro[cyclohexane-1,1′-indene]-4-carboxylic acid], the Ki in assay [1] came out at 34.2 nM. Moreover, the IC50 in assay [2] (Homo sapiens, NCI-H929, 48 h) was determined as 879 nM.
As to `C[C@@H](COc1ccnc2c1[C@@H](C)CC[C@H]2C)C[C@H]1Cc2ccccc2[C@]12CC[C@@](Nc1cccc(Cl)c1)(C(=O)O)CC2` (single isomer, unassigned) [Example 659, (1r,2′S,4S)-4-(3-chloroanilino)-2′-[(2R)-3-{[(5R*,8S*)-5,8-dimethyl-5,6,7,8-tetrahydroquinolin-4-yl]oxy}-2-methylpropyl]-2′,3′-dihydrospiro[cyclohexane-1,1′-indene]-4-carboxylic acid], the Ki in assay [1] was 5.73 nM. Also, in assay [2], the IC50 worked out at 559 nM.
The like results for `Cc1cc(OC[C@H](C)C[C@H]2Cc3ccccc3[C@]23CC[C@@](Nc2cccc(Cl)c2)(C(=O)O)CC3)c2c(n1)CCCC2C` (single isomer, unassigned) [Example 662] were, in that order, 68.7 nM and 9060 nM.
On the same counts, the results for `Cc1cc(OC[C@H](C)C[C@H]2Cc3ccccc3[C@]23CC[C@@](Nc2cccc(Cl)c2)(C(=O)O)CC3)c2c(n1)CCCC2C` (single isomer, unassigned) [Example 663] are 23.1 nM and 3430 nM.
As to `C[C@@H](COc1ccnc2c1CCCC2C(F)F)C[C@H]1Cc2ccccc2[C@]12CC[C@@](Nc1cccc(Cl)c1)(C(=O)O)CC2` (single isomer, unassigned) [Example 682], the Ki in assay [1] was 46.6 nM. For the same molecule, the IC50 in assay [2] (Homo sapiens, NCI-H929, 48 h) stood at 5180 nM.
